Test results as given in PubChem BioAssay (NCI).
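Step 1: Grow cells in 96-well plates. Step 2: Expose to compound for 48 hours at 5 concentrations. Step 3: Interpolate endpoints linearly; if unreached, use highest concentration. GI50: concentration for 50% inhibition of growth. TGI: total growth inhibition.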

Columns and labels:
Experiment in all cases: growth of human tumour cells (NCI), 48 h
[1] = tested on: 786-0 renal
[2] = tested on: A498 renal
[3] = tested on: A549 NSCLC
[4] = tested on: ACHN renal
[5] = tested on: BT-549 breast
[6] = tested on: CAKI-1 renal
[7] = tested on: CCRF-CEM leukemia
[8] = tested on: COLO 205 colon
[9] = tested on: DU-145 prostate
[10] = tested on: EKVX NSCLC
[11] = tested on: HCC-2998 colon
[12] = tested on: HL-60(TB) leukemia
[13] = tested on: HOP-62 NSCLC
[14] = tested on: HOP-92 NSCLC
[15] = tested on: HS 578T breast
[16] = tested on: HT29 colon
[17] = tested on: IGROV1 ovarian
[18] = tested on: K-562 leukemia
[19] = tested on: KM12 colon
[20] = tested on: LOX IMVI melanoma
[21] = tested on: M14 melanoma
[22] = tested on: MALME-3M melanoma
[23] = tested on: MCF7 breast
[24] = tested on: MDA-MB-231 breast
[25] = tested on: MDA-MB-435
[26] = tested on: MOLT-4 leukemia
[27] = tested on: NCI-H226 lung
[28] = tested on: NCI-H23 lung
[29] = tested on: NCI-H522 lung
[30] = tested on: NCI/ADR-RES ovarian
[31] = tested on: OVCAR-3 ovarian
[32] = tested on: OVCAR-4 ovarian
[33] = tested on: OVCAR-5 ovarian
[34] = tested on: OVCAR-8 ovarian
[35] = tested on: PC-3 prostate
[36] = tested on: RPMI-8226 leukemia
[37] = tested on: RXF 393 renal
[38] = tested on: SF-268 CNS
[39] = tested on: SF-295 CNS
[40] = tested on: SF-539 CNS
[41] = tested on: SK-MEL-2 melanoma
[42] = tested on: SK-MEL-28 melanoma
[43] = tested on: SK-MEL-5 melanoma
[44] = tested on: SK-OV-3 ovarian
[45] = tested on: SN12C renal
[46] = tested on: SNB-19 CNS
[47] = tested on: SNB-75 CNS
[48] = tested on: SW-620 colon
[49] = tested on: T-47D breast
[50] = tested on: TK-10 renal
[51] = tested on: U251 CNS
[52] = tested on: UACC-257 melanoma
[53] = tested on: UACC-62 melanoma
[54] = tested on: UO-31 renal
[55] = tested on: HCT-116 colon
[56] = tested on: HCT-15 colon
[57] = tested on: NCI-H460 lung

`c1ccc2c(c1)ccn1ccc3c4ccccc4nc-3c21` gave a TGI [1] of 1.31 µM, a TGI [2] of 0.892 µM and a TGI [3] of 1.57 µM. The TGI [4] was 1.87 µM, the TGI [5] was 3.82 µM and the TGI [6] was 2.09 µM. For the same compound, the TGI [7] was 1.43 µM, the TGI [8] was 1.13 µM and the TGI [9] was 1.72 µM. The TGI [10] was 1.13 µM, the TGI [11] was 1.16 µM and the TGI [12] was 1.36 µM. The TGI [13] was 1.85 µM, the TGI [14] was 4.44 µM and the TGI [15] was 4.25 µM. It also gave a TGI [16] of 1.58 µM, a TGI [17] of 2.8 µM and a TGI [18] of 0.567 µM. The TGI [19] was 1.92 µM, the TGI [20] was 1.48 µM and the TGI [21] was 1.51 µM. The TGI [22] was 2.01 µM, the TGI [23] was 1.11 µM and the TGI [24] was 2.2 µM. The TGI [25] was 1.65 µM, the TGI [26] was 0.415 µM and the TGI [27] was 1.81 µM. The TGI [28] was 2.12 µM, the TGI [29] was 1.7 µM and the TGI [30] was 2.17 µM. The TGI [31] was 2.92 µM, the TGI [32] was 1.75 µM and the TGI [33] was 2.36 µM. The TGI [34] was 1.78 µM, the TGI [35] was 1.67 µM and the TGI [36] was 0.799 µM. It also gave a TGI [37] of 2.39 µM, a TGI [38] of 2.29 µM and a TGI [39] of 2.03 µM. The TGI [40] was 1.48 µM, the TGI [41] was 2.54 µM and the TGI [42] was 1.8 µM. For the same compound, the TGI [43] was 1.71 µM, the TGI [44] was 2.9 µM and the TGI [45] was 2.1 µM. The TGI [46] was 3.14 µM, the TGI [47] was 2.15 µM and the TGI [48] was 2.34 µM. The TGI [49] was 3.51 µM, the TGI [50] was 4.34 µM and the TGI [51] was 1.47 µM. It also gave a TGI [52] of 2.92 µM, a TGI [53] of 3.81 µM and a TGI [54] of 2.24 µM.

Work on `Cc1ccc2oc3c(c(Br)c(Br)n3C)c(=O)c2c1` yielded a TGI [1] of 30.3 µM, a TGI [2] of 41.3 µM and a TGI [3] of 51.5 µM. For the same compound, the TGI [4] was 32.1 µM, the TGI [5] was greater than 100 µM and the TGI [6] was 63.8 µM. It also gave a TGI [7] greater than 100 µM, a TGI [8] greater than 100 µM and a TGI [9] greater than 100 µM. It also gave a TGI [10] of 44.2 µM, a TGI [55] of 33.9 µM and a TGI [56] greater than 100 µM. For the same compound, the TGI [12] was greater than 100 µM, the TGI [13] was 33.3 µM and the TGI [14] was 38.1 µM. For the same compound, the TGI [15] was 65 µM, the TGI [16] was greater than 100 µM and the TGI [17] was greater than 100 µM. The TGI [18] was greater than 100 µM, the TGI [19] was greater than 100 µM and the TGI [20] was greater than 100 µM. The TGI [21] was greater than 100 µM, the TGI [22] was 70.5 µM and the TGI [23] was greater than 100 µM. The TGI [24] was 43.5 µM, the TGI [25] was greater than 100 µM and the TGI [26] was greater than 100 µM. It also gave a TGI [27] of 32.9 µM, a TGI [28] of 46.3 µM and a TGI [29] greater than 100 µM. For the same compound, the TGI [30] was 52.5 µM, the TGI [31] was 46.8 µM and the TGI [32] was greater than 100 µM. The TGI [33] was 99.7 µM, the TGI [34] was 31.9 µM and the TGI [35] was greater than 100 µM. It also gave a TGI [36] greater than 100 µM, a TGI [37] of 31.4 µM and a TGI [38] greater than 100 µM. For the same compound, the TGI [39] was 47.2 µM, the TGI [40] was 37.3 µM and the TGI [41] was 89 µM. The TGI [42] was greater than 100 µM, the TGI [43] was greater than 100 µM and the TGI [45] was 47 µM. The TGI [46] was 36 µM, the TGI [48] was greater than 100 µM and the TGI [49] was greater than 100 µM. It also gave a TGI [50] of 38.9 µM, a TGI [51] of 35.8 µM and a TGI [52] greater than 100 µM. It also gave a TGI [53] of 52.3 µM and a TGI [54] of 27.5 µM.

`COc1cc(-n2ccnc2)cc(OC)c1OC` showed a GI50 [1] of 39.1 µM, a TGI [1] greater than 100 µM and a GI50 [2] of 35.8 µM. It also gave a TGI [2] greater than 100 µM, a GI50 [3] of 95.1 µM and a TGI [3] greater than 100 µM. For the same compound, the GI50 [4] was 34.6 µM, the TGI [4] was greater than 100 µM and the GI50 [5] was greater than 100 µM. For the same compound, the TGI [5] was greater than 100 µM, the GI50 [6] was 26.7 µM and the TGI [6] was 55.8 µM. It also gave a GI50 [7] of 47.6 µM, a TGI [7] greater than 100 µM and a GI50 [8] greater than 100 µM. It also gave a TGI [8] greater than 100 µM, a GI50 [9] greater than 100 µM and a TGI [9] greater than 100 µM. The GI50 [10] was 84.4 µM, the TGI [10] was greater than 100 µM and the GI50 [11] was 99.5 µM. It also gave a TGI [11] greater than 100 µM, a GI50 [55] of 31.9 µM and a TGI [55] greater than 100 µM. It also gave a GI50 [56] of 40 µM, a TGI [56] greater than 100 µM and a GI50 [13] of 31.9 µM. For the same compound, the TGI [13] was greater than 100 µM, the GI50 [14] was 72.6 µM and the TGI [14] was greater than 100 µM. The GI50 [15] was greater than 100 µM, the TGI [15] was greater than 100 µM and the GI50 [16] was greater than 100 µM. It also gave a TGI [16] greater than 100 µM, a GI50 [17] of 11.1 µM and a TGI [17] of 51.6 µM. The GI50 [18] was 68.1 µM, the TGI [18] was greater than 100 µM and the GI50 [19] was 43.2 µM. For the same compound, the TGI [19] was greater than 100 µM, the GI50 [20] was 60.3 µM and the TGI [20] was greater than 100 µM. The GI50 [22] was 35.1 µM, the TGI [22] was greater than 100 µM and the GI50 [23] was 41.7 µM. For the same compound, the TGI [23] was greater than 100 µM, the GI50 [24] was 79 µM and the TGI [24] was greater than 100 µM. For the same compound, the GI50 [25] was 75.6 µM, the TGI [25] was greater than 100 µM and the GI50 [26] was 42.2 µM. For the same compound, the TGI [26] was greater than 100 µM, the GI50 [27] was 36.2 µM and the TGI [27] was greater than 100 µM. It also gave a GI50 [28] greater than 100 µM, a TGI [28] greater than 100 µM and a GI50 [57] of 41.6 µM. For the same compound, the TGI [57] was greater than 100 µM, the GI50 [29] was 60.6 µM and the TGI [29] was greater than 100 µM. The GI50 [30] was 34.2 µM, the TGI [30] was greater than 100 µM and the GI50 [31] was 51.6 µM. It also gave a TGI [31] greater than 100 µM, a GI50 [32] greater than 100 µM and a TGI [32] greater than 100 µM. It also gave a GI50 [33] greater than 100 µM, a TGI [33] greater than 100 µM and a GI50 [34] of 56.8 µM. It also gave a TGI [34] greater than 100 µM, a GI50 [35] of 50 µM and a TGI [35] greater than 100 µM. It also gave a GI50 [36] of 75.6 µM, a TGI [36] greater than 100 µM and a GI50 [37] greater than 100 µM. It also gave a TGI [37] greater than 100 µM, a GI50 [38] of 37.9 µM and a TGI [38] greater than 100 µM. The GI50 [39] was 20.9 µM, the TGI [39] was 63.1 µM and the GI50 [40] was greater than 100 µM. It also gave a TGI [40] greater than 100 µM, a GI50 [41] of 64.1 µM and a TGI [41] greater than 100 µM. For the same compound, the GI50 [42] was greater than 100 µM, the TGI [42] was greater than 100 µM and the GI50 [43] was 59 µM. The TGI [43] was greater than 100 µM, the GI50 [44] was 80.2 µM and the TGI [44] was greater than 100 µM. For the same compound, the GI50 [45] was 86 µM, the TGI [45] was greater than 100 µM and the GI50 [46] was greater than 100 µM. The TGI [46] was greater than 100 µM, the GI50 [48] was greater than 100 µM and the TGI [48] was greater than 100 µM. For the same compound, the GI50 [49] was greater than 100 µM, the TGI [49] was greater than 100 µM and the GI50 [50] was 42.5 µM. The TGI [50] was greater than 100 µM, the GI50 [51] was 58.6 µM and the TGI [51] was greater than 100 µM. For the same compound, the GI50 [52] was greater than 100 µM, the TGI [52] was greater than 100 µM and the GI50 [53] was 36 µM. It also gave a TGI [53] greater than 100 µM, a GI50 [54] of 21.4 µM and a TGI [54] greater than 100 µM.
